The target of one series is T1, CYP1A2 (Homo sapiens, UniProt P05177).
T1 construct: co-incubated with human liver microsomes; from tissue; host or cells: human liver microsomes
T1 sequence (P05177 1-516): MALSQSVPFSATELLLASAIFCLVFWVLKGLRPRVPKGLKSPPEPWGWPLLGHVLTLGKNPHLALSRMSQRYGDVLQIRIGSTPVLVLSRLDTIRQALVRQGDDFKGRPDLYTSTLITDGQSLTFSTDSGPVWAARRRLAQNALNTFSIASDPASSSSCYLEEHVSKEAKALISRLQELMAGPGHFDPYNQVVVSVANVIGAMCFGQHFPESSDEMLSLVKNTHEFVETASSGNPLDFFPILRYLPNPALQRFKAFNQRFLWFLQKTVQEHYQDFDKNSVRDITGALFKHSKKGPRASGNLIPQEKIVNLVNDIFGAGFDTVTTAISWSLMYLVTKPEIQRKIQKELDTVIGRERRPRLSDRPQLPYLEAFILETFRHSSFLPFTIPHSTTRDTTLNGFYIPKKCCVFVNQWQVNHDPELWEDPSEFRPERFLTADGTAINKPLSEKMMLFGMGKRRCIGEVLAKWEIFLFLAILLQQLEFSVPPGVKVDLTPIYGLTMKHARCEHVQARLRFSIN
The series is described as follows: CYP450 enzyme activity inhibition assay, CYP1A2. Format: in vitro ADME. The protocol: (§1) The purpose of this study was to evaluate the effects of the test compounds on the activities of five isoenzymes (CYP1A2, CYP2C9, CYP2C19, CYP2D6, and CYP3A4) of human liver microsomal cytochrome P450 (CYP) using an in vitro testing system. The specific probe substrates for each CYP450 isoenzyme were co-incubated with human liver microsomes and the test compounds at different concentrations, and reduced nicotinamide adenine dinucleotide phosphate (NADPH) was added to initiate the reaction. After the reactions were completed, the samples were treated, and liquid chromatography-tandem mass spectrometry (LC-MS/MS) was used to quantitatively detect metabolites produced by the specific substrates. The changes in CYP enzyme activities were determined, and the IC50 values were calculated to evaluate the inhibitory potential of the test compounds against each CYP enzyme subtype.

The next series deals with SW48 cells. Kind of series: SW48 cell proliferation inhibition assay (CellTiter-Glo). The series is classed as cell-based. To be noted: Homo sapiens, 96 h, 4 days, read-out: Inhibitory activity against SW48 cell proliferation IC50. The protocol: The culture conditions for SW48 cells were as follows: Leibovitz L15 + 10% FBS + 1% penicillin-streptomycin, and the cells were cultured in an incubator without CO2 at 37°C. On the first day, the SW48 cells in the exponential growth phase were collected and plated in 96-well cell culture plates at a density of 1000 cells/well (180 µL/well). The plates were cultured overnight in an incubator without CO2 at 37°C. T0 wells were plated simultaneously during the plating process. The next day, 20 µL of compounds at different concentrations were added to each well (nine compound concentration gradients, one DMSO well, and one blank well; each compound concentration was plated in triplicate), and the final concentration of DMSO in each well was 0.1%. The plates were cultured in an incubator without CO2 at 37°C for 4 days. On the same day of compound addition, the T0 plate was detected using the CellTiter-Glo Kit, and the detected value was recorded as RLU0. After the culture was completed, 100 µL of detection solution (Cell Viability Assay, Promega) was added to each well. The plates were incubated at room temperature for 10 minutes with slow shaking. The chemiluminescence reading was read using a BMG microplate reader (PHERAstar FSX). The results were processed according to Formula (5) to calculate the proliferation inhibition rate of compounds at each concentration. Curve fitting was performed via a four-parameter logistic model using GraphPad Prism software, and the GI50 value (the concentration of the compound when the proliferation inhibition rate was 50%) was calculated. In the formula, RLUcompound is the readout of the drug-treated group, RLUcontrol is the average value of the compound vehicle control group, and RLUBlank is the average value of the blank control group. [formula] Table 3. Results of inhibitory activity of test compounds against cell proliferation
On the technique in general: Cellular ATP, detected with luciferase, serves as a proxy for viable cell number.

The target in the next series is T2, CYP3A4 (Homo sapiens, UniProt P08684).
T2 construct: co-incubated with human liver microsomes; from tissue; host or cells: human liver microsomes
T2 sequence (P08684 whole entry): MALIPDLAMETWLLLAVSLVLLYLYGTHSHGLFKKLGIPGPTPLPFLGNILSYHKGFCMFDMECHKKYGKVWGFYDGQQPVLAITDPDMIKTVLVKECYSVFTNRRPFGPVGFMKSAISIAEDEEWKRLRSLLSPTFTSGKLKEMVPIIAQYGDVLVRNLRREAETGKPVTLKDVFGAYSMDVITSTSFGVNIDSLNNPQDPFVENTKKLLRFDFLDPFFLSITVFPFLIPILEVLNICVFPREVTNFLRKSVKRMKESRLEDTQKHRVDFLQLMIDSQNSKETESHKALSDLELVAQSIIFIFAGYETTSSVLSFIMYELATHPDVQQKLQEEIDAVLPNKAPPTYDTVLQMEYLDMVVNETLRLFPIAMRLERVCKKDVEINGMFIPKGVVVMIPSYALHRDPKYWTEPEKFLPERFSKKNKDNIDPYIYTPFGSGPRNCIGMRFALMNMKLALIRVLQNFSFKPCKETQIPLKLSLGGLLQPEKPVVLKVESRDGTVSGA
Kind of series: CYP450 enzyme activity inhibition assay, CYP3A4. The series is classed as in vitro ADME. The method, then:
as §1

A further series concerns the target T3, CYP2D6 (Homo sapiens, UniProt P10635).
T3 construct: co-incubated with human liver microsomes; from tissue; host or cells: human liver microsomes
The series is described as follows: CYP450 enzyme activity inhibition assay, CYP2D6. Format: in vitro ADME. The protocol:
as §1

The target of a further series is T4, CYP2C19 (Homo sapiens, UniProt P33261).
T4 construct: co-incubated with human liver microsomes; from tissue; host or cells: human liver microsomes
T4 sequence (P33261 whole entry): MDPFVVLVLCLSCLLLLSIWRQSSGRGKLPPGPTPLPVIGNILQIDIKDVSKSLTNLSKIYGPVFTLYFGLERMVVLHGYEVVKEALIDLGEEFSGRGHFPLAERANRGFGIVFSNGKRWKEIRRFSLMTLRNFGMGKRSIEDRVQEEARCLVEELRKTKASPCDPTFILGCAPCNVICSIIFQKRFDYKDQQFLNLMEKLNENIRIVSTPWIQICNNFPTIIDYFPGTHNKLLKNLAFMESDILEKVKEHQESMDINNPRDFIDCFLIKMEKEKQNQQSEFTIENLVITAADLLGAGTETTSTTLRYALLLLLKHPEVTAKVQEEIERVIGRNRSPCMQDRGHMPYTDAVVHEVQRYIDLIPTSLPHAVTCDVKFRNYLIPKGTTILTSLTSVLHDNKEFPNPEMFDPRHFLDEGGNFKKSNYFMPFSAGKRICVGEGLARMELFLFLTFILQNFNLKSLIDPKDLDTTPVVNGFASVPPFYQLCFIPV
The series is described as follows: CYP450 enzyme activity inhibition assay, CYP2C19. Format: in vitro ADME. The protocol:
as §1

A further series has as its target T5, CYP2C9 (Homo sapiens, UniProt P11712).
T5 construct: co-incubated with human liver microsomes; from tissue; host or cells: human liver microsomes
The series is described as follows: CYP450 enzyme activity inhibition assay, CYP2C9. Format: in vitro ADME. The protocol:
as §1

The nature of series [1]: Mouse pharmacokinetic assay. Format: in vivo, Balb/c mice. The note with it: for pharmacokinetic properties: mouse. The method, then: 4.1. Experimental animals: Male Balb/c mice, about 22 g, 6-8 weeks old, 6 mice/compound. The animals were purchased from CHENGDU DOSSY EXPERIMENTAL ANIMALS CO., LTD.
4.2. Experimental design: On the day of the experiment, the Balb/c mice were randomly grouped according to their body weights. The animals were fasted with water available for 12-14 h one day before the administration, and were fed 4 h after the administration. Table 4. Administration information
Vehicle for intravenous administration: 5% DMA + 5% Solutol + 90% Saline; and vehicle for intragastric administration: 5% DMSO + 95% (20% SBE-β-CD in Saline)
Before and after the administration, 0.03 ml of blood was taken from the orbit under isoflurane anesthesia and placed in an EDTAK2 centrifuge tube. The tube was centrifuged at 5000 rpm at 4°C for 10 min, and plasma was collected. The blood collection time points for the intravenous administration group and intragastric administration group were as follows: 0, 2 min, 5 min, 15 min, 30 min, 1 h, 2 h, 4 h, and 7 h. Before analysis and detection, all samples were stored at - 80°C. Table 5. Pharmacokinetic parameters of test compounds in mouse plasma

Where two headings read alike, the source gives them in different places. A value given as a limit tells only on which side of the number the result lay.

T5 sequence (P11712 whole entry): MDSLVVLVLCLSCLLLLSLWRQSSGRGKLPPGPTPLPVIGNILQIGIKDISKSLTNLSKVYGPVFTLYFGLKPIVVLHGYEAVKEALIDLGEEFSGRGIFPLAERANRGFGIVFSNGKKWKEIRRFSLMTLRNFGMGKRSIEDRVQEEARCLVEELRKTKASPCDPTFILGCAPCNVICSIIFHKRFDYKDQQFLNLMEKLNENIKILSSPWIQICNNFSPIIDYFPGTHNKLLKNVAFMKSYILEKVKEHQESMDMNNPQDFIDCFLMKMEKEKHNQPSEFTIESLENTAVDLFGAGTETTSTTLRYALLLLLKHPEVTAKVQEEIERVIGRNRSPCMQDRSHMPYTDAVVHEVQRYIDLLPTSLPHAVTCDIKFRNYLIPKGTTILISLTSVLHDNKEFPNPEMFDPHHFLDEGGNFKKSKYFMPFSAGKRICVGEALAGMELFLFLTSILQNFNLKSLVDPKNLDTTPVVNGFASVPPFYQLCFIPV
T3 sequence (P10635 whole entry): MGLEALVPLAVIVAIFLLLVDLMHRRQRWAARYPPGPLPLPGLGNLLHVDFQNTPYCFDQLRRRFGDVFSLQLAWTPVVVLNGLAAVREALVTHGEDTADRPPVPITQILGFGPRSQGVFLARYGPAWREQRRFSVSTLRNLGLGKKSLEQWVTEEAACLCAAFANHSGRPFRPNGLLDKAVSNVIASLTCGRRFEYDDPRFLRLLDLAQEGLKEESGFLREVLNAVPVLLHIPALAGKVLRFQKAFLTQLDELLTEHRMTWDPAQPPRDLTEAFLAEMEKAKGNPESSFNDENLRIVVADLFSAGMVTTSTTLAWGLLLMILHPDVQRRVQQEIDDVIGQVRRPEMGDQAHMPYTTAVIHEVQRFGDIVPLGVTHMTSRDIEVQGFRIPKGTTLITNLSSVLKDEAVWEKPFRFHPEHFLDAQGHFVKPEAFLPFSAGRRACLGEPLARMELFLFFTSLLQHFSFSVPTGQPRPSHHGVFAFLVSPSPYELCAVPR

Take `Cc1ncnc(C(=O)N2[C@@H](C)CN(c3c4n(c5nc(C6=CCOCC6)nn5c3=O)[C@@H](C(=O)Nc3ccc(C(F)(F)F)cc3Cl)CCC4)C[C@@H]2C)c1O` [Compound 20-A]: the IC50 against CYP1A2 is more than 30 µM; in the series with SW48 cells it was less than 0.1 µM; on CYP3A4 it was more than 30 µM; at CYP2D6, more than 30 µM; against CYP2C19, more than 30 µM; against CYP2C9 it was more than 30 µM. The AUC(0-t) (in general, the area under the concentration-time curve up to a stated or last time point) in series [1] (po, mouse plasma, i.g. (10 mg/kg)) is 38500 ng·h/mL. Also, the bioavailability was 93.4% in series [1] (po, mouse plasma, i.g. (10 mg/kg), read-out: F (%)) and “good” in series [1] (result in words, in mice). Further, the exposure level entry in series [1] (result in words, in mice) is given as “high”. Besides, the pharmacokinetic properties entry in series [1] (result in words) is “favorable”.

As for `Cc1ncnc(C(=O)N2CCN(c3c4n(c5nc(C6=CCOCC6)nn5c3=O)[C@@H](C(=O)Nc3ccc(C(F)(F)F)cc3Cl)CCC4)CC2)c1O` [Compound 1-B], the IC50 against CYP1A2 was more than 30 µM; in the series with SW48 cells it was less than 0.1 µM; at CYP3A4, more than 30 µM; against CYP2D6, more than 30 µM; against CYP2C19, more than 30 µM; at CYP2C9, more than 30 µM. For the same molecule, in series [1] (result in words), the pharmacokinetic properties result is recorded as “favorable”.

On to `Cc1ncnc(C(=O)N2CCN(c3c4n(c5nc(C6=CCOCC6)nn5c3=O)C(C(=O)Nc3ccc(C(F)(F)F)cc3Cl)CCC4)C[C@H]2C)c1O` (single isomer, unassigned) [Compound 8-B], for which the IC50 was more than 30 µM on CYP1A2; less than 0.1 µM in the series with SW48 cells; more than 30 µM against CYP3A4; more than 30 µM at CYP2D6; more than 30 µM against CYP2C19; more than 30 µM against CYP2C9. Besides, the pharmacokinetic properties result in series [1] (result in words) was “favorable”.

For the origin of these results see patent EP4755890A1, “OXO-TRICYCLIC DERIVATIVE AND PHARMACEUTICAL USE THEREOF” (Haisco Pharmaceutical Group Co., Ltd., priority 2023, dated 2025).
